In patent US10716769B2 (GUANGZHOU JTREAT BIOSCI. LTD., priority 2015, dated 2020):

Assays:
HPV 6/11 Virus = experiment: HPV detection via fluorescence quantitative PCR in genital warts tissue homogenate; set-up: species or system human papillomavirus; conditions: genital warts tissue homogenate, 37° C., 24 hours, FQ-PCR
Source text: (§1) The aforesaid compounds and/or compositions containing the same are effective in killing and inhibiting HPV type 6/11 and type 16/18, which can be used for the preparation of drugs for preventing and treating viral infection of HPV, preventing and treating genital warts, flat warts, common warts, vaginitis, cervicitis and cervical erosion, cervical cancer, esophageal cancer and other cancers caused by HPV. The present invention observes the effect of active ingredients and products by the detection of the change in the amount of the HPV virus through the real-time quantitative PCR. Such method has been applied in several publications (Youling C A I, et al., Chinese STD/AIDS, 2002, 8: 2,108; Yuansheng W U, Ruijiang F A N, et al., Practical Application of Integrated Chinese and Western Medicine in Clinics, 2003, 3: 2,1).
(§2) The microemulsion obtained in example 1 is used as a test sample and saline for blank control.
(§3) The standard clinical genital warts specimens from a variety of patients after being cut off are washed with saline for removing bloods, and are cut into pieces under aseptic conditions, added with saline in 3 times of their volumes to be uniformly mixed, grinded into homogenate and placed at −40° C. for use.
(§4) Each test sample drug microemulsion and the saline of 50 μl for each are respectively added with 50 μl the genital warts tissue homogenate, and incubated at 37° C. for 24 hours; tests are performed according to the operation procedure provided by the HPV6, 11 and 16, 18 type FQ-PCR diagnostic kits provided by Da'an Gene Diagnostic Center. 0.2 ml of DNA extracted by the conventional alkaline lysis method is put into the thin-walled reaction tube, and simultaneously added with primers, F-PROBE, DNTP, DNA polymerase, buffers and the like in a certain concentration; ABI PRISM™ 7700 fluorescence quantitative PCR amplifier is used to repeat 40 circulations each with 45 s at 93° C. and 120 s at 55° C. after predegeneration at 93° C. for 2 mins; the quantitative results are automatically analyzed by the computer software to calculate the quantitative results of the initial copy number. The data are shown in Table 2 (completed by Da'an Gene Clinical Test Center).

HPV16/18 = experiment: as above; set-up: species or system human papillomavirus; conditions: genital warts tissue homogenate, 37° C., 24 hours, FQ-PCR
Source text: as §1, §2, §3, §4

CCCOC(=O)c1cc(O)c(O)c(O)c1 [Propyl gallate, propyl 3,4,5-trihydroxybenzoate, reference compound]
HPV 6/11 Virus (HPV 6/11 Virus): 0 copy/ml | HPV16/18 (HPV16/18): 0 copy/ml
